Ten molecules from patent US9167821B2 (priority 2009, dated 2015) can be followed below.

Data set [1] deals with Phytophthora infestans. In words: whole plant or invertebrate. The following applies: for efficacy: tomato plants, protective spray, 10 ppm active ingredient, evaluation 3 days after inoculation, 0% = control, 100% = no infection. Format: in vivo.
Data set [2] has as its system Plasmopara viticola. As to the kind of experiment: Plasmopara test (grapevine)/protective. Format: in vivo. The following applies: grapevine plants, protective spray, 10 ppm active ingredient, evaluation 6 days after inoculation, 0% = control, 100% = no infection. The method, then:
Plasmopara Test (Grapevine)/Protective
To prepare an appropriate active ingredient preparation, 1 part by weight of active ingredient is mixed with the stated amounts of solvent and emulsifier, and the concentrate is diluted with water to the desired concentration.
To test for protective efficacy, young plants are sprayed with the active ingredient preparation at the stated application rate. After the spray coating has dried on, the plants are inoculated with an aqueous spore suspension of Plasmopara viticola and then remain in an incubation cabinet at about 20° C. and 100% relative atmospheric humidity for 1 day. The plants are then placed in a greenhouse at approx. 21° C. and approx. 90% air humidity for 4 days. The plants are then moistened and placed in an incubation cabinet for 1 day.
Evaluation follows 6 days after the inoculation.

For data set [3], the system named is Peronospora brassicae. As to the kind of experiment: Peronospora test (rapeseed)/seed treatment. Format: in vivo. The following applies: 50 g/dt active ingredient, greenhouse, infected leaf area per plant, 0% = control, 100% = no infestation. The method, then:
Peronospora Test (Rapeseed)/Seed Treatment
The test was carried out under greenhouse conditions.
To produce an active ingredient preparation, the active ingredient was dissolved in N-methyl-2-pyrrolidone and the concentrate was diluted with water to the desired concentration. The rapeseeds treated with this solution were sown in 6*6 cm pots which had been filled to a height of 4 cm with a 1:1 mixture of steam-treated soil and sand. Then the plants were cultivated at 10° C.
After 14 days, the plants were inoculated with an aqueous spore suspension of Peronospora brassicae. Subsequently, the plants were placed in a greenhouse at approx. 15° C. and 100% air humidity for 7 days.
The evaluation was effected by assessing the infected leaf area per plant. 0% means an efficiency which corresponds to that of the control, while an efficiency of 100% means that no infestation is observed.

The conditions of data set [4]: for logp [b]: pH 2.7; for logp [c]: pH 7.8.
Source text: (§1) The determination is effected in the acidic range at pH 2.3 using 0.1% aqueous phosphoric acid and acetonitrile as eluents; linear gradient from 10% acetonitrile to 95% acetonitrile. • ^[b] The LC-MS determination in the acidic range is effected at pH 2.7 using 0.1% aqueous formic acid and acetonitrile (contains 0.1% formic acid) as eluents; linear gradient from 10% acetonitrile to 95% acetonitrile. • ^[c] The LC-MS determination in the neutral range is effected at pH 7.8 using 0.001 molar aqueous ammonium hydrogencarbonate solution and acetonitrile as eluents; linear gradient from 10% acetonitrile to 95% acetonitrile.
(§2) The calibration is effected with unbranched alkan-2-ones (having 3 to 16 carbon atoms) with known log P values (determination of the log P values using the retention times by linear interpolation between two successive alkanones).
Data set [5] in a line: physchem. As to conditions: pH 2.7, logp [b].
Source text: as §1, §2

Consider `O=C(Cn1nc(C(F)F)cc1C(F)F)N1CCC(F)(c2nc(C3=NOC(c4c(F)cccc4F)C3)cs2)CC1` (racemic) [I-6], for which the efficacy in data set [1] was 94%. In data set [2], the efficacy was 100%. The molecule further registered an efficiency in data set [3] of 100%. Moreover, in data set [4], the “logp [b]” value was 3.43^[b]; and the “logp [c]” value is 3.34^[c].

Regarding `CCC#CCOc1ccccc1C1CC(c2csc(C3CCN(C(=O)Cn4nc(C(F)F)cc4C(F)F)CC3)n2)=NO1` (racemic) [I-25], the efficacy was determined as 95% in data set [1] and 74% in data set [2]. Also, in data set [4], the “logp [b]” value was 3.91^[b].

Turning to `CS(=O)(=O)Nc1ccc(C2CC(c3csc(C4CCN(C(=O)Cn5nc(C(F)F)cc5C(F)F)CC4)n3)=NO2)cc1` (racemic) [I-40], the efficacy in data set [1] is 95%; in data set [2] it was 91%. The “logp [b]” value in data set [4] was 2.41^[b].

Consider `CC(=O)c1cccc(C2CC(c3csc(C4CCN(C(=O)Cn5nc(C(F)F)cc5C(F)F)CC4)n3)=NO2)c1` (racemic) [I-8], for which the results for the efficacy in data set [1] and in data set [2] were 97% and 99%, respectively. Also, in data set [4], the “logp [b]” value was 2.78^[b].

In general, chromatographic logP refers to lipophilicity estimated from chromatographic retention. Read a low chromatographic logP as lower lipophilicity. `CC(=O)c1ccccc1C1CC(c2csc(C3CCN(C(=O)Cn4nc(C(F)F)cc4C(F)F)CC3)n2)=NO1` (stereo not drawn) [I-7, 1-(4-{4-[5-(2-Acetylphenyl)-4,5-dihydro-1,2-oxazol-3-yl]-1,3-thiazol-2-yl}piperidin-1-yl)-2-[3,5-bis(difluoromethyl)-1H-pyrazol-1-yl]ethanone]: the pest or weed control at 10 ppm was 97% in data set [1] (Phytophthora infestans, in Solanum lycopersicum, 72 h, read-out: efficacy) and 100% in data set [2] (Plasmopara viticola, 144 h, read-out: efficacy). Further, in data set [3], the efficiency is listed as 100%. The molecule also registered a chromatographic logP in data set [5] of 3.08.

In the case of `O=C(Cn1nc(C(F)F)cc1C(F)F)N1CCC(c2nc(-c3cc(-c4ccccc4)on3)cs2)CC1` [I-3], the efficacy in data set [1] and in data set [2] was 100% in each case. In addition, the “logp [b]” value in data set [4] was 3.66^[b].

As to `O=C(Cn1nc(C(F)F)cc1C(F)F)N1CCC(c2nc(C3=NOC(c4ccccc4)C3)cs2)CC1` (racemic) [I-1], in data set [1], the efficacy amounted to 95%. In addition, the efficacy in data set [2] came out at 100%. In data set [3], this molecule had an efficiency of 100%. Besides, in data set [4], the “logp [b]” value was 3.17^[b]; and the “logp [c]” value was 3.11^[c].

Take `O=C(Cn1nc(C(F)F)cc1C(F)F)N1CCC(c2nc(C3=NOC(c4c(F)cccc4F)C3)cs2)CC1` (racemic) [I-2]: the efficacy is 99% in data set [1] and 100% in data set [2]. In addition, the “logp [b]” value in data set [4] is 3.14^[b].

For `O=Cc1cccc(C2CC(c3csc(C4CCN(C(=O)Cn5nc(C(F)F)cc5C(F)F)CC4)n3)=NO2)c1` (racemic) [I-23], the results for the efficacy in data set [1] and in data set [2] were 97% and 99%, respectively. For the same molecule, the “logp [b]” value in data set [4] is 2.78^[b].

For `CC#CCOc1cccc(C2CC(c3csc(C4CCN(C(=O)Cn5nc(C(F)F)cc5C(F)F)CC4)n3)=NO2)c1` (racemic) [I-15], the efficacy in data set [1] was found to be 95%; in data set [2], 93%. Besides, the “logp [a]” value in data set [4] (pH 2.3) is 3.29^[a]. Further, in data set [4], the “logp [c]” value is 3.33^[c];.
